Measured values taken from patent publication US20260159520A1, “HETEROBIFUNCTIONAL COMPOUNDS AND METHODS OF TREATING DISEASE” (Halda Therapeutics OpCo, Inc., priority 2022, published 2026).

Key:
CDK9 = molecular target: T1, CDK9 (Homo sapiens, UniProt P50750); experiment: KdELECT binding assay, CDK9; details: CDK9, Table 7
T1 construct: made in house; host or cells: E. coli BL21-derived host (T7 phage) or HEK-293 ('BEK-293' [sic])
In short: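 Phage-tagged or HEK-derived DNA-tagged kinases competed 1 h at room temperature against bead-immobilised biotinylated ligand in SeaBlock/PBS/Tween/DTT buffer, 0.9% DMSO final. Bound kinase eluted with 0.5 μM free ligand and quantified by qPCR; Kd from 11-point 3-fold dilution series.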

[1] = system: T-Rex 293 cell line SC cells having increased expression of progesterone receptor isoform B protein; experiment: Cellular growth inhibition, T-Rex 293 SC cells with doxycycline (increased progesterone receptor isoform B expression); assay type: cell-based; details: with 10 ng/mL doxycycline (increased progesterone receptor isoform B), 72 hours, CellTiter-Glo 2.0
[2] = system: T-Rex 293 cell line SC cells lacking increased expression of progesterone receptor isoform B protein; experiment: Cellular growth inhibition, T-Rex 293 SC cells without doxycycline; assay type: cell-based; details: not exposed to doxycycline, 72 hours, CellTiter-Glo 2.0

T1 sequence (P50750 whole entry): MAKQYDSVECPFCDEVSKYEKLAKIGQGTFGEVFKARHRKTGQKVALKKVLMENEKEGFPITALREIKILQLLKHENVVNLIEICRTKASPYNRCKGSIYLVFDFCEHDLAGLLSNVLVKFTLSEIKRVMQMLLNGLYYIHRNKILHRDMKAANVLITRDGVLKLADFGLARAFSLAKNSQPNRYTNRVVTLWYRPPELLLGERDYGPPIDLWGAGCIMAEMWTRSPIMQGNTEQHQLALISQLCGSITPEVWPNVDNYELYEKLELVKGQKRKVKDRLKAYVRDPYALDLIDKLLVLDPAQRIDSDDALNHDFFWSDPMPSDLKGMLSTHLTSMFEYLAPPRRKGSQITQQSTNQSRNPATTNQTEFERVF

Kd (CDK9) [nM]	SMILES	GI50 [1] [nM]	GI50 [2] [nM]
50 to 500	CCc1cnn2c(NCc3ccc(OCCOCCOCCOC4CCN(c5ncc(C(=O)N[C@H]6C(C)(C)[C@H](Oc7ccc(C#N)c(Cl)c7)C6(C)C)cn5)CC4)nc3)cc(N3CCCC[C@H]3CCO)nc12 [Compound I-8]	< 500	< 500
50 to 500	CCc1cnn2c(NCc3ccc(OCCOCCOCCOCCOCCN(C)c4ncc(C(=O)N[C@H]5C(C)(C)[C@H](Oc6ccc(C#N)c(Cl)c6)C5(C)C)cn4)nc3)cc(N3CCCC[C@H]3CCO)nc12 [Compound I-3]	< 500	< 500
500 to 2500	CC1(C)[C@H](NC(=O)c2cnc(N3CCC(CN4CCN(CCN5C/C=C/CCOc6cccc(c6)-c6ccnc(n6)Nc6cccc(c6)C5)CC4)CC3)nc2)C(C)(C)[C@H]1Oc1ccc(C#N)c(Cl)c1 [Compound I-94]	500 to 1500	> 3000
< 50	CCc1cnn2c(NCc3ccc(COCCN4CCN(CC5CCN(c6ncc(C(=O)N[C@H]7C(C)(C)[C@H](Oc8ccc(C#N)c(Cl)c8)C7(C)C)cn6)CC5)CC4)nc3)cc(N3CCCC[C@H]3CCO)nc12 [Compound I-42]	< 500	< 500
